≈ marks a conversion by molar mass, not a printed value.
settings: buffer; pH 7.4; 200.0 µM

| SMILES | solubility kinetic |
| --- | --- |
| Cc1cccc(OCCC(=O)Nc2ccccc2C(N)=O)c1 | 44.2 µg/mL (≈ 148 µM) |
| O=C(COc1ccc(-c2nnco2)cc1)N1CCOCC1 | > 43.4 µg/mL |
| COc1ccc(S(=O)(=O)Nc2cc3c4c(c2)CC(=O)N4CCC3)cc1 | 50 µg/mL (≈ 140 µM) |
| O=C(CNC(=O)c1ccc(Cl)cc1Cl)NCC1CCCO1 (centres undefined) | > 49.7 µg/mL |
| CC(=O)N(Cc1ccccc1)c1nc(-c2ccccc2)cs1 | < 0.3 µg/mL |
| Cc1cccc(/C=C(\C(=O)O)c2ccc(S(=O)(=O)N3CCCC3)s2)c1 | > 56.6 µg/mL |
| CCCCCc1c(O)nc(SCCN(C)C)[nH]c1=O.Cl | > 48.3 µg/mL |
| O=C(COc1ccccc1F)NCCc1ccc2c(c1)OCCO2 | > 49.7 µg/mL |
| Cc1cc(C)cc(C(=O)Nc2ccc(N3CCCC3)cc2)c1 | 0.7 µg/mL (≈ 2.38 µM) |
| CC(C)CC1(C)NC(=O)N(CC(=O)Nc2ccc3c(c2)CCC3)C1=O (centres undefined) | > 51.5 µg/mL |
| CC(=O)Nc1ccc(S(=O)(=O)NCCC(=O)OCC(=O)NCc2ccccc2)cc1 | > 65 µg/mL |
| COc1cc(CNC(=O)c2cc3ccccc3oc2=O)cc(OC)c1OC | 4.6 µg/mL (≈ 12.5 µM) |
| Cc1ccc(C)c(N2CCN(C3CCCC(C)C3)CC2)c1 (centres undefined) | 23.3 µg/mL (≈ 81.3 µM) |
| Cn1c(=O)c2c(nc(N3CCCC3)n2C)n(C)c1=O | > 39.5 µg/mL |
| O=C(NCCc1csc(-c2ccccc2)n1)c1ccco1 | 42.4 µg/mL (≈ 142 µM) |
| O=C(CCc1nc(-c2ccc(F)cc2)no1)Nc1cccc(C(=O)NC2CC2)c1 | 9.7 µg/mL (≈ 24.6 µM) |
| Cc1cc2cc(CCNC(=O)CCCc3ccccc3)c(=O)[nH]c2cc1C | 1.7 µg/mL (≈ 4.69 µM) |
| CC(=O)Nc1ccc(NC(=O)Nc2ccccc2C)cc1 | 1.8 µg/mL (≈ 6.35 µM) |
| CC(=O)c1ccc(NC(=O)CSc2nccn2C)cc1 | > 43.4 µg/mL |
| N/C(=N\OC(=O)/C=C/c1ccccc1Cl)c1cccnc1 | 14.9 µg/mL (≈ 49.4 µM) |
| Nc1cc(-c2ccccc2)n2c(n1)nc1ccccc12 | 5.7 µg/mL (≈ 21.9 µM) |
| COCCn1c(SCC(=O)N2CCOCC2)nnc1-c1ccco1 | > 52.9 µg/mL |
| O=c1c(Cc2ccc(Cl)cc2Cl)c(O)ccn1Cc1ccncc1 | > 54.2 µg/mL |
| COc1ccc(CNC(=O)c2cc3cc(OC)ccc3oc2=O)cc1 | < 0.7 µg/mL |

| SMILES | solubility kinetic |
| --- | --- |
| O=C(c1ccc([N+](=O)[O-])s1)N1CCc2ccccc2C1 | 2.8 µg/mL (≈ 9.71 µM) |
| Cn1cc(C(=O)NCCO)c(=O)c2ccccc21 | > 36.9 µg/mL |
| Cl.O=[N+]([O-])c1ccc(OCC(O)CNC2CCCC2)cc1 (centres undefined) | > 47.5 µg/mL |
| CC(=O)Nc1ccc(S(=O)(=O)Nc2ccn(Cc3ccccc3Cl)n2)cc1 | > 60.7 µg/mL |
| CCN(CC)S(=O)(=O)c1ccc(NC(=S)NC(=O)C2CCC2)cc1 | 18.7 µg/mL (≈ 50.6 µM) |
| CCNC(=S)Nc1sc2c(c1C#N)CCC(C)C2 (centres undefined) | 1.1 µg/mL (≈ 3.94 µM) |
| O=C(Nc1ccccc1)N1CCCN(c2ccc(C(F)(F)F)cn2)CC1 | 9.7 µg/mL (≈ 26.6 µM) |
| CC(C)(CC(=O)O)CC(=O)N1CCN(c2nc3cc(Cl)ccc3s2)CC1 | > 59.4 µg/mL |
| CCOC(=O)c1c(NC(=O)CN2CCN(C(=O)c3ccco3)CC2)sc(C(N)=O)c1C | 5.6 µg/mL (≈ 12.5 µM) |
| COc1ccccc1NS(=O)(=O)c1ccc(C)c(C(=O)N2CCN(c3ccc(O)cc3)CC2)c1.Cl | > 77.7 µg/mL |
| O=C(NCC(c1ccco1)N1CCCC1)c1sc2cc(F)ccc2c1Cl (centres undefined) | 7.5 µg/mL (≈ 19.1 µM) |
| CN(Cc1ccccc1)S(=O)(=O)c1ccc2c(c1)n(C)c(=O)c(=O)n2C | 1.4 µg/mL (≈ 3.75 µM) |
| O=C(O)c1ccc(S(=O)(=O)NC2CC2)cc1 | > 36.2 µg/mL |
| Cc1cccc2nc(-c3ccco3)c(Nc3ccccc3)n12 | 2.9 µg/mL (≈ 10 µM) |
| Cc1cc(Cc2ccc([N+](=O)[O-])cc2)c(C)cn1 | > 36.3 µg/mL |
| Cc1[nH]ccc(=O)c1OCC(=O)O | > 27.5 µg/mL |
| CCOC(=O)c1c(C)[nH]c(C)c1C(=O)COC(=O)c1cccnc1Cl | > 54.7 µg/mL |
| O=C(CCS(=O)(=O)c1ccccc1Cl)NC1CCCCCC1 | > 51.6 µg/mL |
| O=C(NCc1cccnc1)NC(=O)c1ccc(Cl)cc1 | 3.8 µg/mL (≈ 13.1 µM) |
| CCNC(=S)Nc1ccc2c(c1)oc1ccccc12 | 1.7 µg/mL (≈ 6.29 µM) |
| Nc1nc(C23CC4CC(CC(Cl)(C4)C2)C3)cs1 | 8.5 µg/mL (≈ 31.6 µM) |
| COc1ccc(C(=O)Nc2ccccc2C(=O)Nc2ccccn2)cc1 | < 0.2 µg/mL |
| COc1ccc(NC(=O)CN(C)C(=O)Cc2ccc3c(c2)CCC3)cc1 | 12.2 µg/mL (≈ 34.6 µM) |
| CCNc1nc(SCC(N)=O)nc2sc3c(c12)CCN(C)C3 | > 50.6 µg/mL |

| SMILES | solubility kinetic |
| --- | --- |
| N#Cc1cccc(CN2C=NS(=O)(=O)c3ccccc32)c1 | 42.2 µg/mL (≈ 142 µM) |
| CC(=O)N/C(=N/c1nc(C)cc(C)n1)Nc1cccc(C)c1C | 4.9 µg/mL (≈ 15.7 µM) |
| COc1cc2[nH]c(C(=O)N(C)Cc3ccccc3)cc2c(OC)c1OC | 35.7 µg/mL (≈ 101 µM) |
| O=C(COc1ccc(NC(=O)c2ccccc2)cc1)c1ccccc1 | 1.1 µg/mL (≈ 3.32 µM) |
| Cc1ccc(N=C2NC(=O)/C(=C/c3cccnc3)S2)c(C)c1 | 4.8 µg/mL (≈ 15.5 µM) |
| Cc1ccc(C(=O)Nc2ccc3ccccc3c2)cc1 | < 0.6 µg/mL |
| CC(=O)c1cc(C(C)=O)c(C)nc1C | > 28.7 µg/mL |
| COc1ccc(C(=O)NC(=S)SCC(=O)O)cc1 | > 42.8 µg/mL |
| Cc1cccc(/C=C(\C#N)C(=O)Nc2ccccn2)c1 | 33.3 µg/mL (≈ 126 µM) |
| O=C(CCNC(=O)c1ccco1)NCc1ccc(C(=O)O)cc1 | > 47.4 µg/mL |
| CC(C)c1nc(Cl)c(C#N)c2c1COC(C)(C)C2 | 6.6 µg/mL (≈ 24.9 µM) |
| CC(=O)Nc1cccc(NC(=O)/C=C/c2ccc(S(=O)(=O)N3CCOCC3)cc2)c1 | 18.8 µg/mL (≈ 43.8 µM) |
| CCc1cc(=S)n2c([nH]c3ccccc32)c1C#N | 32.6 µg/mL (≈ 129 µM) |
| CSc1ccccc1NC(=O)Cn1c([N+](=O)[O-])cnc1C | 41.5 µg/mL (≈ 135 µM) |
| Cn1c2ccccc2n2c(=O)cc(-c3ccccc3)c(C#N)c12 | < 0.2 µg/mL |
| NS(=O)(=O)c1cccc(NC(=O)COC(=O)CCC2CCCC2)c1 | > 53.2 µg/mL |
| N#CCC(=O)Nc1ncc(Cc2ccccc2Cl)s1 | 1 µg/mL (≈ 3.43 µM) |
| Cc1cc(C)c(NC(=O)CSc2cccc[n+]2[O-])c(C)c1 | > 45.4 µg/mL |
| O=C(COC(=O)c1cccnc1Cl)NC1CCCCCC1 | > 46.6 µg/mL |
| Cc1ccc(NC(=O)Cn2ccnc2)cc1C | 30.4 µg/mL (≈ 133 µM) |
| COC(=O)c1ccc(COC(=O)CNC(=O)C2CCCCC2)cc1 | 16.3 µg/mL (≈ 48.9 µM) |
| COc1cccc(CNC(=O)Cn2nc(C)c([N+](=O)[O-])c2C)c1 | > 47.7 µg/mL |
| Cn1ccnc1SCC(=O)N1CCc2ccccc21 | 38.9 µg/mL (≈ 142 µM) |
| O=C(NCCCn1ccnc1)Nc1ccc2c(c1)OCO2 | > 43.2 µg/mL |

| SMILES | solubility kinetic |
| --- | --- |
| Cc1ccc2nc(SCC3CCCCO3)[nH]c2c1 (centres undefined) | 37.4 µg/mL (≈ 143 µM) |
| Cc1cccc(N=Cc2c(O)n(C)c(=O)n(C)c2=O)c1 | 10 µg/mL (≈ 36.6 µM) |
| Cc1ccc(NC(=O)Cc2c(F)cccc2Cl)cc1S(=O)(=O)N1CCOCC1 | 2 µg/mL (≈ 4.68 µM) |
| Nn1c(-c2ccccc2)nc2ccccc2c1=O | > 35.6 µg/mL |
| NC(=O)c1coc(-c2ccccc2)n1 | > 28.2 µg/mL |
| CN(C)C(=O)Oc1ccc(NC(=O)N2CCOCC2)cc1 | 43.9 µg/mL (≈ 150 µM) |
| Cc1cc(C(=O)NN=C2CCCC2)c2ccccc2n1 | > 40.1 µg/mL |
| O=C(COc1ccccc1Cl)NCCNC(=O)c1ccco1 | 47.3 µg/mL (≈ 147 µM) |
| O=C1CN(S(=O)(=O)c2cc(Br)ccc2Br)CCN1 | > 59.7 µg/mL |
| O=[N+]([O-])c1cccc(-c2ccc(CN3CCCCC3)o2)c1 | 30.5 µg/mL (≈ 107 µM) |
| CN(CC(=O)NCc1cccnc1)S(=O)(=O)c1ccccc1 | > 47.9 µg/mL |
| CC1CN(C(=O)COC(=O)c2ccc3ncsc3c2)CC(C)O1 (centres undefined) | > 50.2 µg/mL |
| O=C(NNC(=O)c1ccc([N+](=O)[O-])cc1)c1ccc(NS(=O)(=O)c2cccs2)cc1 | > 67 µg/mL |
| Cc1cc(C)c2c(CN3CCC(C)CC3)cc(=O)oc2c1C | 1.1 µg/mL (≈ 3.67 µM) |
| COc1ccc(Nc2cc(Nc3ccc(OC)cc3)ncn2)cc1 | < 0.2 µg/mL |
| O=C(Nc1cccc(-c2cn3ccccc3n2)c1)c1ccccc1 | 21 µg/mL (≈ 67 µM) |
| CC1CCN(S(=O)(=O)c2ccc3[nH]c(=O)[nH]c3c2)CC1 | 3.2 µg/mL (≈ 10.8 µM) |
| NC(N)=NC(N)=Nc1cccc2ccccc12 | > 34.1 µg/mL |
| O=C(Nc1ccccn1)c1ccc2c(c1)OCO2 | > 36.3 µg/mL |
| CC1Cc2cc(/C=C3/SC(=S)NC3=O)ccc2O1 (centres undefined) | 9.3 µg/mL (≈ 33.5 µM) |
| CCSc1nnc(NC(=O)c2c(C)noc2C)s1 | > 42.7 µg/mL |
| O=C(Nc1nc(-c2ccc(F)cc2)cs1)c1cccnc1 | 0.6 µg/mL (≈ 2 µM) |
| O=C(CCc1nc(-c2ccccc2)no1)Nc1cccnc1 | > 44.1 µg/mL |
| CC1(C)N2CC3([N+](=O)[O-])CN1CC([N+](=O)[O-])(C2)C3 | 34.5 µg/mL (≈ 135 µM) |

| SMILES | solubility kinetic |
| --- | --- |
| O=C(Nc1ccccc1)Nc1sccc1-c1nc2ccccc2s1 | 3.8 µg/mL (≈ 10.8 µM) |
| CN1CC(C(=O)c2ccc(Cl)cc2)C(c2ccccc2)C1 (centres undefined) | 40.1 µg/mL (≈ 134 µM) |
| Cc1cc(C)c2c(CC(=O)NCCc3ccccc3)coc2c1 | < 0.7 µg/mL |
| Cc1nnc(NC(=O)CN2CC(C)OC(C)C2)s1 (centres undefined) | > 40.6 µg/mL |
| c1ccc(CCNCCCOc2cccc3ccccc23)cc1 | 37.1 µg/mL (≈ 121 µM) |
| Cc1cc(C)c(NC(=O)COC(=O)C2CCCCC2)c(C)c1 | 5.6 µg/mL (≈ 18.5 µM) |
| CCCSc1ncccc1C(=O)O | > 29.6 µg/mL |
| NC(=O)Cn1cc(C(=O)C(=O)N2CCOCC2)c2ccccc21 | > 47.3 µg/mL |
| O=C(Nc1cccc(O)c1)c1cccc(NC(=O)c2cccs2)c1 | > 50.8 µg/mL |
| COc1ccccc1C(=O)OCC(=O)Nc1cccc(S(=O)(=O)NC2=NCCCCC2)c1 | > 68.9 µg/mL |
| CC(C)(C)NS(=O)(=O)c1ccc(NC(=O)C2CCCO2)cc1 (centres undefined) | 43.7 µg/mL (≈ 134 µM) |
| CC1(C)C(=O)N(c2ccccc2F)C(=O)c2ccccc21 | 37.2 µg/mL (≈ 131 µM) |
| O=C(CN1C(=O)COc2ccc(Cl)cc21)N1CCOCC1 | > 46.6 µg/mL |
| CC(C)(C)C(=O)NC(=S)Nc1ccc(C(F)(F)F)cc1 | 1.1 µg/mL (≈ 3.61 µM) |
| CC(C)OC(=O)/C(C#N)=C/c1cn(C)c2ccccc12 | 3.9 µg/mL (≈ 14.5 µM) |
| CCC(CC)C(=O)c1c[nH]c(C(=O)NCCOC)c1 | > 40 µg/mL |
| CC1CCN(C(=O)COc2ncnc3ccccc23)CC1 | 35.7 µg/mL (≈ 125 µM) |
| O=C1CCCN1c1ccc(S(=O)(=O)N2CCCCC2)cc1 | 22.5 µg/mL (≈ 73 µM) |
| Nc1nnc(SCc2ccccc2F)s1 | > 36.2 µg/mL |
| S=C(c1ccc(Br)cc1)N1CCCC1 | > 40.5 µg/mL |
| Cc1nc(SC(C)C(=O)NCc2ccc3c(c2)OCO3)nc(C)c1C (centres undefined) | > 53.9 µg/mL |
| O=C(NC1=NCCS1)c1cccc(OC(F)F)c1 | 23.9 µg/mL (≈ 87.8 µM) |
| CN(Cc1nc(-c2ccc(C(F)(F)F)cc2)no1)C1CCOCC1 | 37.3 µg/mL (≈ 109 µM) |

Source: PubChem BioAssay AID1996
